Assay results published in patent EP0374249A1, “METHOD OF STERILIZING PLANT POLLEN” (VSESOJUZNY NAUCHNO-ISSLEDOVATELSKY INST. SELSKOKHOZYAISTV. …, priority 1988, dated 1989).

Legend:
Linie BK-119 = assay: Field test of pollen sterilisation, sunflower line BK-119; format: in vivo, Sonnenblume; details: period V, 0.5% emulsion; for Prozentsatz der Sterilität: 3 kg/ha (N-Karbamoylmaleaminsäure) or 0.1% emulsion, 1 kg/ha (N-(3-Dimethylaminopropyl)-maleaminsäure); for Ansetzen von Ächänen bei freier Bestäubung in %: 3 kg/ha or 0.1% emulsion, 1 kg/ha, free pollination
From the text: (§1) Die gametozide Aktivität der erfindungsgemässen Sterilisationsmittel war im Feldversuch in verschiedenen Bodenklimatischen Zonen mit Teilstücken von 10 m^2 Grösse in drei- bis viermaliger Wiederholung nachgewiesen. Jedes Sterilisationsmittel wurde mindestens 5 Jahre lang geprüft.
(§2) Die Entwicklung der Perioden der Organogenese wird zytologischüberwacht. Die Behandlung von Pflanzen mit dem Sterilisationsmittel erfolgt am Anfang der fünften Periode der Organogenese nach Kupermann.
(§3) Zur Kontrolle der chemischen Sterilisation des Sonnenblumenpollens werden für jede Verbindung 45 behandelte Pflanzen jeder Wiederholung benutzt, wobei 15 Pflanzen von denen zwecks Selbstbestäurun^g des Blütenkörbchens isoliert werden, 15 andere Pflanzen mit einem Pollengemisch, gesammelt von 20 bis 25 behandelten isolierten Körbchen, bestäubt werden und 15 Pflanzen für freie Bestäubeung gelassen werden, damit das Ansetzen von Ächänen mit dem Pollen der Vaterform kontrolliert werden kann.
(§4) Man beurteilt die Pollensterilität von Pflanzen der Sonnenblume nach der Pollenfertilität und -keimfähigkeit, nach den morphologischen Besonderheiten von Spermien und nach der Fähigkeit von Achänen zum Ansetzen bei der Bestäubung der behandelten isolierten Pflanzen mit dem Pollen der unbehandelten väterlichen Form. Die Lebensfähigkeit der Eizelle wird nach der Samenbildung von behandelten Pflanzen bei freier Bestäubung der väterlichen Form ermittelt.
(§5) Pflanzen der Sonneblume Sorte Peredovik und Linie BK-119 werden in der V. Periode der Organogenese (nach Kupermann) mit einer 0,5%igen wässrigen Emulsion der N-Karbamoylmaleaminsäure behandelt. Die Emulsion enthält 0,01 Masse% Dimethylsulfoxid und 0,1 Masse% Kalziumalkylbenzolsulfonat mit 12 bis 14 Kohlenstoffatomen. Der Verbrauch an Präparat beträgt 3 kg/ha. Die gleichen Pflanzen werden mit einer 0,1masseprozentigen wässrigen Emulsion der N-(3-Dimethylaminopropyl)-maleaminsäure behandelt. Im letzten Falle enthält die Emulsion 0,01 Masse% Dodezylsulfat und 0,1 Masse% Kalziumalkylbenolsulfonat mit 12 bis 14 Kohlensotffatomen. Der Verbrauch an Präparat beträgt 1 kg/ha. Als Kontrolle dienen Pflanzen, behandelt mit einem Verdünner.ohne Sterilisationsmittel. Die Prufergenisse sind in der Tabelle 14 dargestellt. […] Periode der Organogenese erhalten.

[1] = system: Sonneblume Sorte Peredovik; assay: Field test of pollen sterilisation, sunflower variety Peredovik; format: in vivo, Sonnenblume; details: period V, 0.5% emulsion; for Prozentsatz der Sterilität: 3 kg/ha (N-Karbamoylmaleaminsäure) or 0.1% emulsion, 1 kg/ha (N-(3-Dimethylaminopropyl)-maleaminsäure); for Ansetzen von Ächänen bei freier Bestäubung in %: 3 kg/ha or 0.1% emulsion, 1 kg/ha, free pollination
From the text: as §1, §2, §3, §4, §5

[2] = system: Winterweizens Sorte Mir.onovskaya 808; assay: Field test of pollen sterilisation (gametocidal activity), winter wheat Mironovskaya 808; format: in vivo, Winterweizen; details: 2% aqueous emulsion, 20 kg/ha
From the text: Als Emulgierungsmittel wird 0,1 Masse% Kalziumalkylbenzolsulfonat mit 12 bis 14 Kohlenstoffatomen hinzugefügt. Als Adjuvans fährt man in die Emulsion 0,01 Masse% Dimethylsulfoxid ein. Der Verbrauch an Präparat beträgt 20 kg/ha. Als Kontrolle dienen Pflanzen, behandelt mit einem Verdünner ohne Sterilisationsmittel.

[3] = system: diploidem Roggen Sorte Chulpan; assay: Field test of pollen sterilisation, diploid rye Chulpan; format: in vivo; details: 1% aqueous emulsion, 8 kg/ha
From the text: (§10) Mit dem Ahrenschiebe verwirklicht man die Isolierung von Hauptähren und anderen Stockwerken in Pergamentbeuteln. […] Bei Roggen schliesst man je Ähre 5 bis 7 verschiedene nebeneinander befindliche Pflanzen unter einen gemeinsamen Isolator ein. […] Der Sterilitätsprozentsatz (X) für Weizen, Roggen, Tritikale und Hirse wird nach folgender Formel [formula] ermittelt.
Die Emulsion enthält 0,01 Masse% Tetranydrofuran und 0,1 Masse% Kalziumalkylbenzolsulfonat mit 12 bis 14 Kohlenstoffatomen. Der Verbrauch an Präparat beträgt 8 kg/ha. Als Kontrolle dienen Pflanzen, behandelt mit einem Verdünner ohne Sterilisationsmittel.

[4] = system: Winterweizens Sorte Bezostaya 1; assay: Field test of pollen sterilisation, winter wheat Bezostaya 1; format: in vivo, Winterweizen; details: 2% aqueous emulsion, 16 kg/ha
From the text: Pflanzen des Winterweizens Sorte Bezostaya 1 werden in der V. Periode der Organogenese durch Zerstäubung einer 2%igen wässrigen Emulsion von N-(2-Dimethylaminoäthyl)-maleaminsäure, N-(3-Dimethylaminopropyl)-maleaminsäure, N-Äthylmaleaminsäure, N-(2-Hydroxyäthyl)-maleaminsäure, N-Karbamoylmaleaminsäure mit Hilfe deiner Rückspritze behandelt. Die Emulsion enthält 0,1 Masse% Kalziumalkylbenzolsulfonat mit 12 bis 14 Kohlenstoffatomen. Als Adjuvans führt man in die Emulsion 0,01 Masse% Tetrahydrofuran ein.
Der Verbrauch an Präparat beträgt 16 kg/ha. Als Kontrolle dienen Pflanzen, behandelt mit einem Verdünner ohne Sterilisationsmitteln.

[5] = system: diploidem Roggen Sorte Talovskaya 12; assay: Field test of pollen sterilisation, diploid rye Talovskaya 12; format: in vivo; details: 1% aqueous emulsion, 6 kg/ha
From the text: as §10
Pflanzen von diploidem Roggen Sorte Talovskaya 12 werden in der V. Periode der Organogenese (nach Kupermann) mit einer 1%igen wässrigen Emulsion von N-(2-Di- methylaminoäthyl)-maleaminsäure, N-(3-Dimethylaminopropyl)-maleaminsäure, N-Äthylmaleaminsäure, N-(2-Hydroxyäthyl)maleaminsäure, N-Karbamoylmaleaminsäure behandelt. Die Emulsion enthält 0,01 Masse% Dodezylsulfat und 0,1 Masse% Kalziumalkylbenzolsulfonat mit 12 bis _14 Kohlenstoffatomen. Der Verbrauch an Präparat beträgt 6 kg/ha. Als Kontrolle dienen Pflanzen, behandelt mit einem Verdünner ohne Sterilisationsmittel.

[6] = system: tetraploidem Roggen Sorte Ukrainskaya tetra; assay: Field test of pollen sterilisation, tetraploid rye Ukrainskaya tetra; format: in vivo; details: 1% aqueous emulsion, 6 kg/ha
From the text: (§6) Jedes Sterilisationsmittel wurde mindestens 5 Jahre lang geprüft.
as §2
(§7) Mit dem Ahrenschiebe verwirklicht man die Isolierung von Hauptähren und anderen Stockwerken in Pergamentbeuteln. Bei Weizen und Tritikale werden Einzelisolatoren verwendet. Bei Roggen schliesst man je Ähre 5 bis 7 verschiedene nebeneinander befindliche Pflanzen unter einen gemeinsamen Isolator ein. Bei Hirse wird jede Rispe getrennt isoliert. Der Sterilitätsprozentsatz (X) für Weizen, Roggen, Tritikale und Hirse wird nach folgender Formel [formula] ermittelt.
(§8) Die Kornzahl in nicht isolierten ähren von Kontrollpflanzen wird bedingt für 100% Ansetzen bei freier Bestäubung angenommen.
(§9) Um zuverlässige Angaben zu erhalten, verwendet man 20 bis 25 Isolatoren jeder Wiederholung für Weisen und Tritikale, 10 bis 15 Gruppenisolatoren jeder Wiederholung für Roggen und Hirse.
Pflanzen von tetraploidem Roggen Sorte Ukrainskaya tetra werden in der V. Periode der Organogenese (nach Kupermann) mit einer 1%igen wässrigen Emulsion von N-(2-Dimethylaminoäthyl)maleaminsäure, N-(3-Dimethyl-aminopropu)maleaminsäure bzw. N-Karbamoylmaleaminsäure behandelt. Die Emulsion enthält 0,1 Masse% Kaliumalkylbenzolsulfonat mit 12 bis 14 Kohlenstoffatomen und 0,01 Masse% Dodezylsulfat. Der Verbrauch an Präparat beträgt 6 kg/ha. Als Kontrolle dienen Pflanzen, behandelt mit einem Verdünner ohne Sterilisationsmittel. Die Prüfergebnisse sind in der Tabelle 6 dargestellt.

Tritikale Sorte Prag 109 = assay: Field test of pollen sterilisation, triticale Prag 109; format: in vivo; details: 2% aqueous emulsion, 12 kg/ha
From the text: as §6, §2, §7, §8, §9
V.Periode der Organogenese (nach Kupermann) mit einer 2%igen wässrigen Emulsion von N-(3-Dimethylaminopropyl) maleaminsäure, N-Karbamoylmaleaminsäure behandelt. Die Emulsion enthält 0,01 Masse% Tetrahydrofuran […] und 0,1 Masse% Kalziumalkylbenzolsulfonat mit 12 bis 14 Kohlensotffatomen. Der Verbrauch an Präparat beträgt 12 kg/ha. Als Kontrolle dienen Pflanzen, behandelt mit einem Verdünner ohne Sterilisationsmittel.

[7] = Toxicity test in animals (LD50); details: in vivo; animal test, per kg animal weight; species and route not given
From the text: Alle erfindungsgemässen N-substituierten Maleaminsäuren, welche als Sterilisationsmittel zur Verwendung kommen, waren auf die Toxizität im Tierversuch geprüft. Die Prüfergebnisse haben ergeben, dass die angegebenen Verbindungen von schwacher oder mittlerer Toxizität sind.

[8] = system: Hirse Sorte Mironovskoe 94; assay: Field test of pollen sterilisation, millet Mironovskoe 94; format: in vivo; details: 1% aqueous emulsion, 8 kg/ha
From the text: as §1, §2, §7, §8, §9
Pflanzen der Hirse Sorte Mironovskoe 94 werden in der V. Periode der Organogenese (nach Kupermann) mit einer 1%igen wässrigen Emulsion von N-(2-Dimethylaminoäthyl)maleaminsäure, N-(3-Dimethylaminopropyl)maleaminsäure, N-Äthylmaleaminsäure, N-(2-Hydroxyäthyl)maleaminsäure, N-Karbamoylmaleaminsäure behandelt. Die Emulsion enthält 0,01 Masse% Dimethylaulfoxid und 0,1 Masse% Kalziumalkylbenzolsulfonat mit 12 bis 14 Kohlenstoffatomen. Der Verbrauch an Präparat beträgt 8 kg/ha. Als Kontrolle dienen Pflanzen, behandelt mit einem Verdünner ohne Sterilisationsmittel. Die Prüfergebnisse sind in der Tabelle 12 dargestellt. […] Periode der Organogenese erhalten.

[9] = system: tetraploidem Roggen Sorte Belta; assay: Field test of pollen sterilisation, tetraploid rye Belta; format: in vivo; details: 1% aqueous emulsion, 10 kg/ha
From the text: as §1, §2, §7, §8, §9
Pflanzen von tetraploidem Roggen Sorte Belta werden in der V. Periode der Organogenese (nach Kupermann) mit einer 1%igen wässrigen Emulsion von N-(2-Dimethylamino- .äthyl)maleaminsäure, N-(3-Dimethylaminopropyl)maleaminsäure, N-Äthylmaleaminsäure, N-(2-Hydroxyäthyl)maleaminsäure bzw. Karbamoylmaleaminsäure behandelt. Die Emulsion enthält 0,5 Masse% Kalziumalkylbenzolsulfonat mit 12 bis 14 Kohlenstoffatomen und 0,01 Masso% Tetrahydrofuran. Der Verbrauch an Präparat beträgt 10 kg/ha. Die Prüfergebnisse sind in der Tabelle 5 dargestellt. […] Periode der Organogenese erhalten.

[10] = system: diploidem Roggen Sorte Voskhod 2; assay: Field test of pollen sterilisation, diploid rye Voskhod 2; format: in vivo; details: 1% aqueous emulsion, 10 kg/ha
From the text: Die Emulsion enthält 0,1 Masse% Kalziumalkylbenzolsulfonat und 0,01 Masse% Dimethylformamid. Der Verbrauch an Präparat beträgt 10 kg/ha. Als Kontrolle dienen Pflanzen, behandelt mit einem Lösungsmittel ohne Sterilisationsmittel.

[11] = system: Sommerweizens Sorte Moskovskaya 35; assay: Field test of pollen sterilisation, spring wheat Moskovskaya 35; format: in vivo, Sommerweizen; details: 1% aqueous emulsion, 10 kg/ha
From the text: Pflanzen des Sommerweizens Sorte Moskovskaya 35 werden in V. Periode der Organogenese (nach Kupermann) mit einer 1%igen wässrigen Emulsion von N-(2-Dimethyl-aminoäthyl)-maleaminsäure, N-(3-Dimethylaminopropyl)-maleaminsäure, N-Äthylmaleaminsäure, N-(2-Hydroxyäthyl) maleaminsäure bzw. N-Karbamoylmaleaminsäure behandelt. Die Emulsion enthält 0,5 Masse% Kalziumalkylbenzolsulfonat mit 12 bis 14 Kohlenstoffatomen als Emulgierungsmittel und 0,01 Masse% Dimethylformamid als Adjuvans. Der Verbrauch an Präparat beträgt 10 kg/ha. Als Kontrolle dienen Pflanzen, behandelt mit einem Verdünner ohne Sterilisationsmittel.

[12] = system: Sommerweizens Sorte Botanicheskaya 4; assay: Field test of pollen sterilisation, spring wheat Botanicheskaya 4; format: in vivo, Sommerweizen; details: 1% aqueous emulsion, 6 kg/ha
From the text: Pflanzen des Sommerweizens Sorte Botanicheskaya 4 werden in der V. Periode der Organogenese (nach Kupermann) mit einer 1%igen Wässrigen Emulsion von N-(2-Dimethyl-aminoäthyl)-maleaminsäure, N-(3-Dimethylaminopropyl)-maleaminsäure, N-Äthylmaleaminsäure, N-(2-Hydroxyäthyl)-maleaminsäure bzw. N-Karbamoylmaleaminsäure behandelt. Die Emulsion enthält 0,5 Masse% Kalziumalkylbenzolsulfonat mit 12 bis 14 Kohlenstoffatomen und 0,01 Masse% Dimethylsulfoxid als Adjuvans. Der Verbrauch an Präparat beträgt 6 kg/ha. Als Kontrolle dienen Pflanzen, behandelt mit einem Verdünner ohne Sterilisationsmittel.

[13] = period V of organogenesis, free pollination
[14] = period V of organogenesis, isolated ears
[15] = period V, non-isolated control ears = 100%

NC(=O)NC(=O)/C=C\C(=O)O [Beispiel 61, N-Karbamoylmaleaminsäure]
Prozentsatz der Sterilität (Linie BK-119): 100,0% | Ansetzen von Ächänen bei freier Bestäubung in % (Linie BK-119): 82,5%

CN(C)CCCNC(=O)/C=C\C(=O)O [Beispiel 64, N-(3-Dimethylaminopropyl)-maleaminsäure]
Prozentsatz der Sterilität (Linie BK-119): 100,0% | Ansetzen von Ächänen bei freier Bestäubung in % (Linie BK-119): 80,4%

NC(=O)NC(=O)/C=C\C(=O)O [Beispiel 59, N-Karbamoylmaleaminsäure]
Prozentsatz der Sterilität [1]: 100,0% | Ansetzen von Ächänen bei freier Bestäubung in % [1]: 81,7%

CN(C)CCCNC(=O)/C=C\C(=O)O [Beispiel 60, N-(3-Dimethylaminopropyl)-maleaminsäure]
Prozentsatz der Sterilität [1]: 100,0% | Ansetzen von Ächänen bei freier Bestäubung in % [1]: 84,9%

NC(=O)NC(=O)/C=C\C(=O)O [Beispiel 5, N-Karbamoylmaleaminsäure]
Prozentsatz der Sterilität ([2]; period V of organogenesis): 100,0% | Anzahl von Körnern der Ähre bei freier Bestäubung [2, 13]: 40,0 | Anzahl von Körnern der Ähre im Isolator [2, 14]: 0,0 | Prozentsatz des Ansetzens von Körnern bei freier Bestäubung [2, 15]: 93,9% | Prozentsatz der Sterilität ([3]; period V of organogenesis): 100,0% | Anzahl von Körnern der Ähre bei freier Bestäubung [3, 13]: 48,7 | Anzahl von Körnern der Ähre im Isolator [3, 14]: 0,0 | Prozentsatz des Ansetzens von Körnern bei freier Bestäubung [3, 15]: 85,7% | Prozentsatz der Sterilität ([4]; period V of organogenesis): 97,8% | Anzahl von Körnern der Ähre bei freier Bestäubung [4, 13]: 41,8 | Anzahl von Körnern der Ähre im Isolator [4, 14]: 0,7 | Prozentsatz des Ansetzens von Körnern bei breier Bestäubung [4, 15]: 97,4% | Prozentsatz der Sterilität ([5]; period V of organogenesis): 100,0% | Anzahl von Körnern der Ähre bei freier Bestäubung [5, 13]: 48,9 | Anzahl von Körnern der Ähre im Isolator [5, 14]: 0,0 | Prozentsatz des Ansetzens von Körnern bei freier Bestäubung [5, 15]: 87,0% | Prozentsatz der Sterilität ([6]; period V of organogenesis): 99,4% | Anzahl von Körnern der Ähre bei freier Bestäubung [6, 13]: 44,0 | Anzahl von Körnern der Ähre im Isolator [6, 14]: 0,2 | Prozentsatz des Ansetzens von Körnern bei freier Bestäubung [6, 15]: 98,2% | Prozentsatz der Sterilität (Tritikale Sorte Prag 109; period V of organogenesis): 100,0% | Anzahl von Körnern der Ähre bei freier Bestäubung (Tritikale Sorte Prag 109; [13]): 39,6 | Anzahl von Körnern der Ähre im Isolator (Tritikale Sorte Prag 109; [14]): 0,0 | Prozentsatz des Ansetzens von Körnern bei freier Bestäubung (Tritikale Sorte Prag 109; [15]): 86,5% | LD50 [7]: 2000 mg/kg | Prozentsatz der Sterilität ([8]; period V of organogenesis): 100,0% | Anzahl von Körnern der Rispe bei freier Bestäubung [8, 13]: 198,2 | Anzahl von Körnern der Rispe im Isolator ([8]; period V of organogenesis, isolated panicles): 0,0 | Prozentsatz des Ansetzens von Körnern bei freier Bestäubung ([8]; period V, non-isolated control = 100%): 87,2% | Prozentsatz der Sterilität ([9]; period V of organogenesis): 100,0% | Anzahl von Körnern der Ähre bei freier Bestäubung [9, 13]: 47,8 | Anzahl von Körnern der Ähre im Isolator [9, 14]: 0,0 | Prozentsatz des Ansetzens von Körnern bei freier Bestäubung [9, 15]: 87,2% | Prozentsatz der Sterilität ([10]; period V of organogenesis): 98,2% | Anzahl von Körnern der Ähre bei freier Bestäubung [10, 13]: 51,7 | Anzahl von Körnern der Ähre im Isolator [10, 14]: 0,9 | Prozentsatz des Ansetzens von Körnern bei freier Bestäubung [10, 15]: 93,7% | Prozentsatz der Sterilität ([11]; period V of organogenesis): 100,0% | Anzahl von Körnern der Ähre bei freier Bestäubung [11, 13]: 27,2 | Anzahl von Körnern der Ähre im Isolator [11, 14]: 0,0 | Prozentsatz des Ansetzens von Körnern bei freier Bestäubung [11, 15]: 98,9% | Prozentsatz der Sterilität ([12]; period V of organogenesis): 100,0% | Anzahl von Körnern der Ähre bei freier Bestäubung [12, 13]: 27,1 | Anzahl von Körnern der Ähre im Isolator [12, 14]: 0,0 | Prozentsatz des Ansetzens von Körnern bei freier Bestäubung [12, 15]: 90,0%
